# Results reported in US6670459B2, “Process for the isolation of novel oligospirostanoside” (Zandu Pharmaceutical Works Ltd., priority 2002, dated 2003).
# Like-named read-outs stand apart in the source and are kept apart here. Marks after values point to notes of the source that are not given here.
# What was measured:
# immunecompromised mice [1] = assay type: in vivo
# Procedure: (§1) 0 day: sensitization with 0.2 ml of 5×10^9 SRBC/ml i.p.
# (§2) SRBC: Sheep red blood cell.
# (§3) 5th day: measurement of foot thickness/Haemagglutination antibody titre
# immunecompromised mice [2] = assay type: in vivo; remark: listed apart in the source
# Procedure: as §1
# 4th day: challenged with 20 μl of 5×10^9 SRBC/ml into right hind footpad for DTH reaction only.
# as §2, §3
# [3] = immunecompromised mice, 0.0006 mg/kg p.o., days 0-4, day 5, n=12
# [4] = immunecompromised mice, 0.0125 mg/kg p.o., days 0-4, day 5, n=12
# [5] = oral, immunecompromised experimental animals, dose levels 0.0062-0.0125 mg Kg^-1
# [6] = immunecompromised mice, 2.5 mg/kg p.o., days 0-4, day 5, n=12
# [7] = mice, 250 mg/kg p.o., day 5, n=12
compound,measurement,setting,value
"C[C@H]1CC[C@@]2(OC1)O[C@H]1C[C@H]3[C@@H]4CC[C@@H]5C[C@@H](O[C@@H]6O[C@H](CO)[C@@H](O[C@@H]7O[C@@H](C)[C@H](O)[C@@H](O)[C@H]7O[C@@H]7O[C@@H](C)[C@H](O)[C@@H](O)[C@H]7O)[C@H](O)[C@H]6O)CC[C@]5(C)[C@H]4CC[C@]3(C)[C@H]1[C@@H]2C [AR-Iv, 3-0-[α-L-rhamnopyranosyl-(1→2)-α-L-rhamnopyranosyl-(1→4)-0-β-D-glucopyranosyl]-25(S)-5β-spirostan-3β-ol]",Antibody titre % change compared to control,immunecompromised mice [1]; [3],56** %
same,Antibody titre mean ± S.E.,immunecompromised mice [1]; [3],5.60 ± 0.33
same,Antibody titre % change compared to control,immunecompromised mice [1]; [4],78*** %
same,Antibody titre mean ± S.E.,immunecompromised mice [1]; [4],6.41 ± 0.16
same,potentiated antibody synthesis,immunecompromised mice [1]; [5],55.55-69.44%
same,DTH % change compared to control,immunecompromised mice [2]; [3],78*** %
same,DTH mean ± S.E.,immunecompromised mice [2]; [3],0.80 ± 0.14
same,DTH % change compared to control,immunecompromised mice [2]; [4],102*** %
same,DTH mean ± S.E.,immunecompromised mice [2]; [4],0.91 ± 0.42
same,enhanced cell-mediated immune response,immunecompromised mice [2]; [5],77.77-102.22%
"c1ccc([C@H]2CN3CCSC3=N2)cc1 [LEV, Levamisole, reference compound]",Antibody titre % change compared to control,immunecompromised mice [1]; [6],89*** %
same,Antibody titre mean ± S.E.,immunecompromised mice [1]; [6],6.80 ± 0.30
same,DTH % change compared to control,immunecompromised mice [2]; [6],140*** %
same,DTH mean ± S.E.,immunecompromised mice [2]; [6],1.08 ± 0.14
Cyclodextrin [reference compound],Antibody titre % change compared to control,immunecompromised mice [1]; [7],45* %
same,Antibody titre mean ± S.E.,immunecompromised mice [1]; [7],3.60 ± 0.33
same,DTH % change compared to control,immunecompromised mice [2]; [7],23* %
same,DTH mean ± S.E.,immunecompromised mice [2]; [7],0.45 ± 0.24
